Values of other authors, collected in paper PMC6024615, “Effect of Biliary Drainage on the Toxicity and Toxicokinetics of Amanita exitialis in Beagles” (Toxins, 2018).

Tests used:
[1] = intravenous injection, general anesthesia, radioactivity; cited from earlier work
Method: In previous studies, the radioactivity of labeled amatoxins in the serum of dogs or pigs was determined after an intravenous injection of amatoxins; bile was collected and measured using tubes tied to the bile duct under general anesthesia. More than 80% of 14C-methyl-γ-amanitin (14C-A) was eliminated in the urine, with less than 10% in the bile. Different toxin exposure patterns might result in different toxicokinetic data. 14C-A and 3H-O-methyl-dehydroxymethyl-α-amanitin (3H-A) were used for toxicokinetic studies in the animals; the animals were under general anesthesia du ...

[2] = human and rats; cited from earlier work
Method: Vesconi et al. found amatoxins were detectable in the serum of 65% patients within 30 h after ingestion of Amanita phalloides. In another study in patients intoxicated with Amanita phalloides, amatoxins were detectable in the plasma of most patients within 36 h after ingestion. […] These toxins were rapidly detected (30 min) in plasma and ...

Substance	share eliminated in the bile [1]	share eliminated in the urine [1]	reduction in absorption from the intestinal lumen caused by bile exclusion [2]
14C-methyl-γ-amanitin	less than 10%	More than 80%	–
vitamin B12	–	–	50–60%
